ChEMBL document CHEMBL1148021, “(Arylpiperazinyl)cyclohexylsufonamides: discovery of alpha(1a/1d)-selective adrenergic receptor antagonists for the treatment of Benign Prostatic Hyperplasia/Lower Urinary Tract Symptoms (BPH/LUTS)” (Bioorg Med Chem Lett, 2007)

How the values were obtained:
D(2) dopamine receptor = D(2) dopamine receptor (Homo sapiens, UniProt P14416); assay: Binding affinity to human dopamine D2 receptor
[1] = target: T1, Alpha-1B adrenergic receptor (Homo sapiens, UniProt P35368); assay: Binding affinity to human cloned adrenergic alpha-1B receptor
T1 sequence (P35368 whole entry): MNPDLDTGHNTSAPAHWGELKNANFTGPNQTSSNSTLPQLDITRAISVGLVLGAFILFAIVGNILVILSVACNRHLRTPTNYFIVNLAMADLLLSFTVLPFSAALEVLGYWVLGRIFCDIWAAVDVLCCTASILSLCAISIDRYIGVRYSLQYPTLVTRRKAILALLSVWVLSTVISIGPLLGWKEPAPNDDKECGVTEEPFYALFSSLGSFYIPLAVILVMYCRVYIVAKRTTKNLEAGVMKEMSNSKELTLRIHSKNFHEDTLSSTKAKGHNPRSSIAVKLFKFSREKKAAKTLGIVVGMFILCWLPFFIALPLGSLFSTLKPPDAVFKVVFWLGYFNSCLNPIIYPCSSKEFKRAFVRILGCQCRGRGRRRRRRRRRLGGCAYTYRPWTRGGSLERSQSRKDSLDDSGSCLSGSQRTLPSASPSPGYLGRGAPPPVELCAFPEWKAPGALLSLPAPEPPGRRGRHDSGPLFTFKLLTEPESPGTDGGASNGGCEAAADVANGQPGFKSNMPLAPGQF

[2] = target: T2, Alpha-1D adrenergic receptor (Homo sapiens, UniProt P25100); assay: Binding affinity to human cloned adrenergic Alpha-1D receptor
T2 sequence (P25100 whole entry): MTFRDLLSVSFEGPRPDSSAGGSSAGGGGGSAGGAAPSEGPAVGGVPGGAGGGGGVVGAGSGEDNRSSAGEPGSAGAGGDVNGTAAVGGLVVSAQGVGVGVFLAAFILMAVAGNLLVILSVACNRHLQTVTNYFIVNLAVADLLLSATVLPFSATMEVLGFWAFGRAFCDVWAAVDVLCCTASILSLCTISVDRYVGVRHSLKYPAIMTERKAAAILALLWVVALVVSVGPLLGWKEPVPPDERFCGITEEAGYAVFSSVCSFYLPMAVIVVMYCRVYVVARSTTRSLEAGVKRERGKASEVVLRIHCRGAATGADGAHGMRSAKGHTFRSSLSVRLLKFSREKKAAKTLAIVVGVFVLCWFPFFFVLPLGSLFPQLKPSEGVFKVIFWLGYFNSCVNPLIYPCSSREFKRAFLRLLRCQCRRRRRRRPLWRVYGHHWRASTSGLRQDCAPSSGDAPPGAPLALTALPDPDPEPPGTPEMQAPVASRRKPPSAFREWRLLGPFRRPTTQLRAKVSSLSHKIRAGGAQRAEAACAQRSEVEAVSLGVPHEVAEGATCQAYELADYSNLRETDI

[3] = target: T3, Alpha-1A adrenergic receptor (Homo sapiens, UniProt P35348); assay: Binding affinity to human cloned adrenergic alpha-1A receptor
T3 sequence (P35348 whole entry): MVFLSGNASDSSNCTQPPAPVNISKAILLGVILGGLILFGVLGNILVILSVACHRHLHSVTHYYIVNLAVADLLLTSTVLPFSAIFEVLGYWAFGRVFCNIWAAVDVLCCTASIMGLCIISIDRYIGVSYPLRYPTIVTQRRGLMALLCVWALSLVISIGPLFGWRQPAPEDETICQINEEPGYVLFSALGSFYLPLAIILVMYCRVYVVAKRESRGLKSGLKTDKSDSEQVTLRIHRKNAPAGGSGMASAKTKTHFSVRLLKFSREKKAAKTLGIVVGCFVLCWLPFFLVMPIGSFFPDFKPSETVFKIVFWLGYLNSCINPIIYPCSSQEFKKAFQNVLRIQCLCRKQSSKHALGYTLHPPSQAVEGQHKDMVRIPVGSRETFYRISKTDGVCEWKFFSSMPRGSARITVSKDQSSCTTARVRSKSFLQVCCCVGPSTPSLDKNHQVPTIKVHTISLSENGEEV

Sequence of D(2) dopamine receptor (P14416 whole entry): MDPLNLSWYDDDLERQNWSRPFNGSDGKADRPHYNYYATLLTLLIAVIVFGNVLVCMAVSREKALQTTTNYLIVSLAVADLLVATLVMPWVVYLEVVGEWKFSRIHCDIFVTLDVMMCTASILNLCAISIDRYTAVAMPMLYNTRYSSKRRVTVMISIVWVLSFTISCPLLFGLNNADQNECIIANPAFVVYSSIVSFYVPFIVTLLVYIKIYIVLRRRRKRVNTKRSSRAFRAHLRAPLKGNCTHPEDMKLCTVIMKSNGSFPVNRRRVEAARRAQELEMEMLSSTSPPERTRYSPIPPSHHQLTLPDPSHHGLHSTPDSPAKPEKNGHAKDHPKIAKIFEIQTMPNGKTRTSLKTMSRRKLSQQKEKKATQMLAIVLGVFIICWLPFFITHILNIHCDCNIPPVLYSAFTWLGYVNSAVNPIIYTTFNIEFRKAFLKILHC

## COc1ccc(C)cc1S(=O)(=O)N[C@H]1CC[C@@H](N2CCN(c3ccccc3OC(C)C)CC2)CC1
D(2) dopamine receptor
  Ki: 110 nM
[1]
  Ki: 162 nM
[2]
  Ki: 7 nM
[3]
  Ki: 18 nM
